Drawing on PubChem BioAssay (NCI), this text covers GI50 and TGI for nine compounds.

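Briefly, cells in 96-well plates were exposed to five compound concentrations for 48 h, and endpoints were estimated by linear interpolation. GI50: concentration for 50% inhibition of growth. TGI marks complete inhibition of growth.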

Common to all, as to assay: NCI tumour cell line growth inhibition, 48 h
Experiment [1] relates to KM12 colon.
For experiment [2], the system named is IGROV1 ovarian.
Experiment [3] concerns OVCAR-8 ovarian.
Experiment [4] deals with SK-MEL-5 melanoma.
The test system of experiment [5] is UO-31 renal.
The test system of experiment [6] is U251 CNS.
In experiment [7] the test system is T-47D breast.
Experiment [8] deals with HOP-62 NSCLC.

Turning to `O=[N+]([O-])c1ccc(NC(c2ccccc2)c2ccc3cccnc3c2O)cc1` (centres undefined), the GI50 in experiment [1] is 0.449 µM; in experiment [2], 0.388 µM; in experiment [3] it was 0.435 µM; in experiment [4], 0.4 µM; in experiment [5], 0.297 µM; in experiment [6], 0.418 µM. The GI50 in experiment [7] was 0.633 µM; in experiment [8], 0.537 µM. Also, the TGI was greater than 100 µM in experiment [1]; greater than 51.5 µM in experiment [2]; greater than 100 µM in experiment [3]; 3.12 µM in experiment [4]; greater than 31.4 µM in experiment [5]; greater than 100 µM in experiment [6]. The TGI in experiment [7] and in experiment [8] was greater than 100 µM throughout.

For the compound `CN1CCN(CCCn2c3c(sc4ncccc43)c(=O)n3nnc(-c4ccccc4)c23)CC1`, the GI50 in experiment [1] is 1.55 µM; in experiment [2], 1.69 µM; in experiment [3], 1.88 µM; in experiment [4] it was 1.65 µM; in experiment [5], 0.802 µM; in experiment [6], 1.86 µM. Further, the figures for the GI50 in experiment [7] and in experiment [8] were 20.2 µM and 1.63 µM, respectively. For the same compound, the TGI stood at 3.17 µM in experiment [1]; 4.22 µM in experiment [2]; 4.31 µM in experiment [3]; 3.05 µM in experiment [4]; 2.42 µM in experiment [5]; 3.3 µM in experiment [6]. The TGI was 39.4 µM in experiment [7] and 3.4 µM in experiment [8].

Take `CC(C)Cc1cc(-c2cccn2C)c(C#N)c(=O)[nH]1`: the GI50 in experiment [1], in experiment [2], in experiment [3], in experiment [4], in experiment [5] and in experiment [6] was greater than 100 µM in each case. The GI50 in experiment [7] and in experiment [8] was greater than 100 µM throughout. Besides, the TGI in experiment [1], in experiment [2], in experiment [3], in experiment [4], in experiment [5] and in experiment [6] was greater than 100 µM in each case. The TGI in experiment [7] and in experiment [8] was greater than 100 µM in each case.

With `COc1ccc(COc2ccc(Cc3cnc(N)nc3N)cc2OC)cc1`, the GI50 in experiment [1] is 1.03 µM; in experiment [2], greater than 25 µM; in experiment [3] it was greater than 25 µM; in experiment [4], 3.43 µM; in experiment [5], 11.9 µM; in experiment [6], 21.4 µM. For the same compound, the GI50 is 7.08 µM in experiment [7] and greater than 18.4 µM in experiment [8]. Moreover, the TGI is greater than 25 µM in experiment [1]; greater than 25 µM in experiment [2]; greater than 25 µM in experiment [3]; 7.66 µM in experiment [4]; greater than 25 µM in experiment [5]; greater than 25 µM in experiment [6]. Besides, the TGI in experiment [7] and in experiment [8] was greater than 25 µM in each case.

Take `Cc1c(-c2c(F)cc(C(N)=O)c3[nH]c4c(c23)CC[C@H](C(C)(C)O)C4)cccc1-n1c(=O)c2cccc(F)c2n(C)c1=O`: the GI50 in experiment [1] is 0.399 µM; in experiment [2], 3.19 µM; in experiment [3], 4.16 µM; in experiment [4], 3.83 µM; in experiment [5] it was 1.01 µM; in experiment [6], 6.07 µM. For the same compound, the GI50 in experiment [7] and in experiment [8] was 3.39 µM in each case. Moreover, the TGI in experiment [1] was greater than 100 µM; in experiment [2], greater than 100 µM; in experiment [3], greater than 100 µM; in experiment [4], 16.2 µM; in experiment [5], 5.59 µM; in experiment [6], greater than 100 µM. The TGI in experiment [7] and in experiment [8] was greater than 100 µM in each case.

For the compound `O=C(COc1ccc(Cl)cc1Cl)NNc1ccc([N+](=O)[O-])cc1`, the GI50 in experiment [1] is greater than 100 µM; in experiment [2], 36 µM; in experiment [3], 98.9 µM; in experiment [4] it was greater than 100 µM; in experiment [5], greater than 100 µM; in experiment [6] it was 20.1 µM. Also, the figures for the GI50 in experiment [7] and in experiment [8] were 43.3 µM and 19.7 µM, respectively. In addition, the TGI in experiment [1] was greater than 100 µM; in experiment [2], greater than 100 µM; in experiment [3], greater than 100 µM; in experiment [4], greater than 100 µM; in experiment [5], greater than 100 µM; in experiment [6], 43.6 µM. Also, the TGI in experiment [7] was greater than 100 µM; in experiment [8], 38.6 µM.

For the compound `COc1ccc(N2CCN(c3nc(-c4ccccn4)nc4sc5c(c34)CCCCCC5)CC2)cc1`, the GI50 in experiment [1] was 5.15 µM; in experiment [2] it was 5.34 µM; in experiment [3], 5.23 µM; in experiment [4], 2.85 µM; in experiment [5], 3.28 µM; in experiment [6], 4.26 µM. Further, the GI50 in experiment [7] was 6.31 µM; in experiment [8] it was 11.4 µM. Further, the TGI in experiment [1], in experiment [2], in experiment [3], in experiment [4], in experiment [5] and in experiment [6] was greater than 100 µM in each case. In addition, the TGI in experiment [7] and in experiment [8] was greater than 100 µM in each case.

`C#Cc1cccc(NC(=O)C2CCCCN2C(=O)CCl)c1` (centres undefined): the GI50 in experiment [1] is 37.1 µM; in experiment [2], 9.72 µM; in experiment [3], 20.3 µM; in experiment [4], 9.54 µM; in experiment [5], 13.6 µM; in experiment [6], 15.1 µM. Also, the values for the GI50 in experiment [7] and in experiment [8] were 16 µM and greater than 82.5 µM, respectively. Also, the TGI in experiment [1] was greater than 82.5 µM; in experiment [2], 27.1 µM; in experiment [3], greater than 82.5 µM; in experiment [4], 41.2 µM; in experiment [5], 25.7 µM; in experiment [6], 35.8 µM. Moreover, the TGI in experiment [7] and in experiment [8] was greater than 82.5 µM in each case.

With `CS(=O)(=O)Nc1cc(-c2ccc3ncnc(Nc4ccc(OCc5ccccn5)c(Cl)c4)c3c2)cnc1Cl`, the GI50 in experiment [1] is 0.572 µM; in experiment [2], 0.0748 µM; in experiment [3], 1.36 µM; in experiment [4], 0.214 µM; in experiment [5], 0.337 µM; in experiment [6], 0.316 µM. For the same compound, the GI50 in experiment [7] is 0.0258 µM; in experiment [8] it was 0.646 µM. Besides, the TGI is 2.18 µM in experiment [1]; 0.409 µM in experiment [2]; 26.8 µM in experiment [3]; 0.68 µM in experiment [4]; 3.86 µM in experiment [5]; 2.31 µM in experiment [6]. The TGI in experiment [7] was 0.217 µM; in experiment [8], greater than 100 µM.
